Biological target: T1, CFTR (Homo sapiens, UniProt P13569, DEL508-508)
T1 construct: Primary CF airway epithelial cells were obtained from the UNC Cystic Fibrosis Tissue Procurement and Cell Culture Core; host or cells: primary CF airway epithelial cells, differentiated at the air-liquid interface
Assay: Equivalent current assay in primary CF airway epithelial cells (NAUC, combination with 1st site corrector FDL169 or VX-809)
Format: cell-based
Details: 37° C., 24 h

[1] = test compound 1 μM in combination with 1st site corrector VX-809 (3 μM)
[2] = test compound 3 μM in combination with 1st site corrector VX-809 (3 μM)
[3] = test compound 10 μM in combination with 1st site corrector VX-809 (3 μM)
[4] = test compound 1 μM in combination with 1st site corrector FDL169 (3 μM)
[5] = test compound 3 μM in combination with 1st site corrector FDL169 (3 μM)
[6] = test compound 10 μM in combination with 1st site corrector FDL169 (3 μM)

T1 sequence (P13569 with tags, fused parts or gaps DEL508-508): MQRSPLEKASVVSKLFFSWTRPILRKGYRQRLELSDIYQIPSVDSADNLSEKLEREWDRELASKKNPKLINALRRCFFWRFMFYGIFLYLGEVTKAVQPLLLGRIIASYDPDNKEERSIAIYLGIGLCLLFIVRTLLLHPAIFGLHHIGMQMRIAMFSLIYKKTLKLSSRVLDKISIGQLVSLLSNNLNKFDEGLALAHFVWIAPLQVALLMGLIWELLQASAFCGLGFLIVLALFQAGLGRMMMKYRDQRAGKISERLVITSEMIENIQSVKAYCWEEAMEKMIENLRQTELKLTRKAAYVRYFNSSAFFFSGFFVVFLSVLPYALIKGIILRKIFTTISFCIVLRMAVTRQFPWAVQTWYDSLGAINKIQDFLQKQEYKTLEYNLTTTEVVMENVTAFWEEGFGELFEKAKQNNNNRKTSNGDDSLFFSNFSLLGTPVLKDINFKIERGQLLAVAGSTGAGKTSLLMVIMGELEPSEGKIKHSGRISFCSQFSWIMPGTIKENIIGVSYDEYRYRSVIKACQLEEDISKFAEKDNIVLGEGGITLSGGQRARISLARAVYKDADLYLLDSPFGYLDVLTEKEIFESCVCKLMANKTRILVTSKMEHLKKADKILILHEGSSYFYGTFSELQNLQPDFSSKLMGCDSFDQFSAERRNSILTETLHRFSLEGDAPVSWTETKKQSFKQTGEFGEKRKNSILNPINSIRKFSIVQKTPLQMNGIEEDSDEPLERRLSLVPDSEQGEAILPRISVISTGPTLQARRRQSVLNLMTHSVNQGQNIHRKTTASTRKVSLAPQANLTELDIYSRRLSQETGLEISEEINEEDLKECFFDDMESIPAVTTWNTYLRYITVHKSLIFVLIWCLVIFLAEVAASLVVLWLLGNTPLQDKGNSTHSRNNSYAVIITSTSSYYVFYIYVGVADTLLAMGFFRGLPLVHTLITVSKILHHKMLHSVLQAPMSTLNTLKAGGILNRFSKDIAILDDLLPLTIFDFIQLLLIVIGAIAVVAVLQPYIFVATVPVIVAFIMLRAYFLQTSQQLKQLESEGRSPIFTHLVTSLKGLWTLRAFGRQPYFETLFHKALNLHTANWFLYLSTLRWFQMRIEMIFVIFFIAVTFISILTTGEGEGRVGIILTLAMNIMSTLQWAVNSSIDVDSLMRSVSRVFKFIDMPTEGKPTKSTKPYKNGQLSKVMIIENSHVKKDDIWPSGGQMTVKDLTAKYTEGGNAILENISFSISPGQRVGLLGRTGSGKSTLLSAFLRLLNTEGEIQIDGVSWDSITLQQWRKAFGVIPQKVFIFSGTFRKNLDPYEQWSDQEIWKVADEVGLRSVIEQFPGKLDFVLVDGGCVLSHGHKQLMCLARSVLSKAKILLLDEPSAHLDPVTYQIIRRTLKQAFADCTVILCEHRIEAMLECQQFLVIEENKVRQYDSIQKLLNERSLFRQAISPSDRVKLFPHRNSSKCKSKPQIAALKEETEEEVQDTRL

SMILES | Nauc @ 1 μM [1] | Nauc @ 3 μM [2] | Nauc @ 10 μM [3] | Nauc @ 1 μM [4] | Nauc @ 3 μM [5] | Nauc @ 10 μM [6]
O=C(Nc1n[nH]c2ccc(F)cc12)[C@H]1[C@H]2CC(F)(F)CN2[C@]2(C(=O)Nc3c(Cl)cc(Cl)cc32)[C@H]1C(=O)O [Example 130] | + (NAUC “+” refers to an observed NAUC <140% of positive control) | + (NAUC “+” refers to an observed NAUC <140% of positive control) | – | – | – | –
O=C(Nc1cncc(C(F)(F)F)n1)C1C2C[C@@](O)(C(F)(F)F)CN2C2(C(=O)Nc3c(Cl)cc(Cl)cc32)C1C(=O)O (stereo partly shown) [Example 17] | – | +++ (NAUC “+++” refers to an observed NAUC>170% of positive control) | +++ (NAUC “+++” refers to an observed NAUC>170% of positive control) | – | – | –
CN(C(=O)[C@H]1[C@H]2CC(F)(F)CN2C2(C(=O)Nc3ccccc32)[C@H]1C(=O)O)c1cc(Cl)cc(Cl)c1 (stereo partly shown) [Example 102] | – | – | + (NAUC “+” refers to an observed NAUC <140% of positive control) | – | – | –
COc1c(Cl)cc(N(C)C(=O)[C@H]2[C@H]3CC(F)(F)CN3[C@]3(C(=O)Nc4c(Cl)cc(Cl)cc43)[C@H]2C(=O)O)cc1Cl [Example 179] | – | – | – | ++ (NAUC “++” refers to an observed NAUC 170-140% of positive control) | ++ (NAUC “++” refers to an observed NAUC 170-140% of positive control) | +++ (NAUC “+++” refers to an observed NAUC>170% of positive control)
CN(O)C(=O)C1C(C(=O)Nc2cc(Cl)cc(Cl)c2)C2CCCN2C12C(=O)Nc1c(Cl)cc(Cl)cc12 (single isomer, unassigned) [Example 235a, 5,7-dichloro-N1′-(3,5-dichlorophenyl)-N2′-hydroxy-N2′-methyl-2-oxo-1′,2′,5′,6′,7′,7a′-hexahydrospiro[indoline-3,3′-pyrrolizine]-1′,2′-dicarboxamide] | ++ (NAUC “++” refers to an observed NAUC 170-140% of positive control) | +++ (NAUC “+++” refers to an observed NAUC>170% of positive control) | +++ (NAUC “+++” refers to an observed NAUC>170% of positive control) | – | – | –
O=C(Nc1cccc(-c2ccccc2)c1)[C@H]1[C@H]2CC(F)(F)CN2[C@]2(C(=O)Nc3c(Cl)cc(Cl)cc32)[C@H]1C(=O)O [Example 124] | +++ (NAUC “+++” refers to an observed NAUC>170% of positive control) | +++ (NAUC “+++” refers to an observed NAUC>170% of positive control) | – | – | – | –
COc1cc(C(F)(F)F)cc(NC(=O)C2C3C[C@](C)(O)CN3C3(C(=O)Nc4c(Cl)cc(Cl)cc43)C2C(=O)O)n1 (stereo partly shown) [Example 6] | – | +++ (NAUC “+++” refers to an observed NAUC>170% of positive control) | +++ (NAUC “+++” refers to an observed NAUC>170% of positive control) | – | – | –
CC1(C)CC2C(C(=O)Nc3cc(Cl)c(OC(F)F)c(Cl)c3)C(C(=O)O)C3(C(=O)Nc4c(Cl)cc(Cl)cc43)N2C1 (stereo not shown) [Example 8, 5,7-dichloro-1′-((3,5-dichloro-4-(difluoromethoxy)phenyl)carbamoyl)-6′,6′-dimethyl-2-oxo-1′,2′,5′,6′,7′,7a′-hexahydrospiro[indoline-3,3′-pyrrolizine]-2′-carboxylic acid] | – | +++ (NAUC “+++” refers to an observed NAUC>170% of positive control) | +++ (NAUC “+++” refers to an observed NAUC>170% of positive control) | – | – | –
O=C(Nc1cc(C(F)(F)F)ccn1)C1C2CCCN2C2(C(=O)Nc3c(Cl)cc(Cl)cc32)C1C(=O)O (stereo not shown) [Example 10] | – | ++ (NAUC “++” refers to an observed NAUC 170-140% of positive control) | ++ (NAUC “++” refers to an observed NAUC 170-140% of positive control) | – | – | –
CN(C(=O)C1C2CC(F)(F)CN2C2(C(=O)Nc3c(Cl)cc(Cl)cc32)C1C(=O)O)c1cc(C(F)(F)F)cc(C(F)(F)F)n1 (single isomer, unassigned) [Example 273a, 1′-((4,6-bis(trifluoromethyl)pyridin-2-yl)(methyl)carbamoyl)-5,7-dichloro-6′,6′-difluoro-2-oxo-1′,2′,5′,6′,7′,7a′-hexahydrospiro[indoline-3,3′-pyrrolizine]-2′-carboxylic acid] | – | – | – | + (NAUC “+” refers to an observed NAUC <140% of positive control) | + (NAUC “+” refers to an observed NAUC <140% of positive control) | –
O=C(Nc1ccc2ncccc2c1)[C@H]1[C@H]2CC(F)(F)CN2[C@]2(C(=O)Nc3c(Cl)cc(Cl)cc32)[C@H]1C(=O)O [Example 120] | + (NAUC “+” refers to an observed NAUC <140% of positive control) | + (NAUC “+” refers to an observed NAUC <140% of positive control) | + (NAUC “+” refers to an observed NAUC <140% of positive control) | – | – | –
O=C(Nc1cc(Cl)cc(Cl)c1)C1C(C(F)(F)c2ccc(C(F)(F)F)cc2)NC2(C(=O)Nc3c(Cl)cc(Cl)cc32)C1C(=O)O (stereo not shown) [Example 73.c] | + (NAUC “+” refers to an observed NAUC <140% of positive control) | + (NAUC “+” refers to an observed NAUC <140% of positive control) | +++ (NAUC “+++” refers to an observed NAUC>170% of positive control) | – | – | –
NNC(=O)[C@H]1[C@@H](C(=O)Nc2cc(Cl)cc(Cl)c2)[C@H]2CCCN2C12C(=O)Nc1c(Cl)cc(Cl)cc12 (stereo partly drawn) [Example 236, (1′R,2′S,7a′R)-5,7-dichloro-N-(3,5-dichlorophenyl)-2′-(hydrazinecarbonyl)-2-oxo-1′,2′,5′,6′,7′,7a′-hexahydrospiro[indoline-3,3′-pyrrolizine]-1′-carboxamide] | + (NAUC “+” refers to an observed NAUC <140% of positive control) | ++ (NAUC “++” refers to an observed NAUC 170-140% of positive control) | +++ (NAUC “+++” refers to an observed NAUC>170% of positive control) | – | – | –
CN(CC(C)(C)c1cccc(C(C)(C)C)c1)C(=O)[C@H]1[C@H]2CC(F)(F)CN2[C@]2(C(=O)Nc3c(Cl)cc(Cl)cc32)[C@H]1C(=O)O [Example 170] | +++ (NAUC “+++” refers to an observed NAUC>170% of positive control) | + (NAUC “+” refers to an observed NAUC <140% of positive control) | + (NAUC “+” refers to an observed NAUC <140% of positive control) | – | – | –
CN(C(=O)[C@H]1[C@H]2CC(F)(F)CN2[C@]2(C(=O)Nc3c(Cl)cc(Cl)cc32)[C@H]1C(=O)O)c1cccc(C(F)(F)F)c1 [Example 157] | – | – | – | ++ (NAUC “++” refers to an observed NAUC 170-140% of positive control) | ++ (NAUC “++” refers to an observed NAUC 170-140% of positive control) | –
Cn1cnc(NC(=O)[C@H]2[C@H]3CC(F)(F)CN3[C@]3(C(=O)Nc4c(Cl)cc(Cl)cc43)[C@H]2C(=O)O)c1 [Example 142] | – | – | – | + (NAUC “+” refers to an observed NAUC <140% of positive control) | + (NAUC “+” refers to an observed NAUC <140% of positive control) | –
CC(C)(C)c1cccc(C(C)(C)CNC(=O)[C@H]2[C@H]3CC(F)(F)CN3[C@]3(C(=O)Nc4c(Cl)cc(Cl)cc43)[C@H]2C(=O)O)c1 (racemic) [Example 288b, rac-(1′R,2′S,3R,7a′R)-1′-((2-(3-(tert-butyl)phenyl)-2-methylpropyl)carbamoyl)-5,7-dichloro-6′,6′-difluoro-2-oxo-1′,2′,5′,6′,7′,7a′-hexahydrospiro[indoline-3,3′-pyrrolizine]-2′-carboxylic acid] | – | – | + (NAUC “+” refers to an observed NAUC <140% of positive control) | – | – | –
C[C@]1(O)CC2C(C(=O)Nc3cc(Cl)cc(Cl)c3)C(C(=O)NS(C)(=O)=O)C3(C(=O)Nc4c(Cl)cc(Cl)cc43)N2C1 (stereo partly drawn) [Example 247, (6′S)-5,7-dichloro-N1′-(3,5-dichlorophenyl)-6′-hydroxy-6′-methyl-N2′-(methylsulfonyl)-2-oxo-1′,2′,5′,6′,7′,7a′-hexahydrospiro[indoline-3,3′-pyrrolizine]-1′,2′-dicarboxamide] | + (NAUC “+” refers to an observed NAUC <140% of positive control) | ++ (NAUC “++” refers to an observed NAUC 170-140% of positive control) | +++ (NAUC “+++” refers to an observed NAUC>170% of positive control) | – | – | –
CN(C(=O)[C@H]1[C@H]2CC(F)(F)CN2C2(C(=O)Nc3cc(Cl)ccc32)[C@H]1C(=O)O)c1cc(Cl)cc(Cl)c1 (stereo partly shown) [Example 101] | – | – | – | + (NAUC “+” refers to an observed NAUC <140% of positive control) | + (NAUC “+” refers to an observed NAUC <140% of positive control) | –
COc1cc(C(F)(F)F)cc(N(C)C(=O)[C@H]2[C@H]3CC(F)(F)CN3[C@]3(C(=O)Nc4c(Cl)cc(Cl)cc43)[C@H]2C(=O)O)n1 [Example 133] | +++ (NAUC “+++” refers to an observed NAUC>170% of positive control) | +++ (NAUC “+++” refers to an observed NAUC>170% of positive control) | +++ (NAUC “+++” refers to an observed NAUC>170% of positive control) | – | – | –
CN(C(=O)[C@H]1[C@H]2CC(F)(F)CN2C2(C(=O)Nc3c(Cl)cccc32)[C@H]1C(=O)O)c1cc(Cl)cc(Cl)c1 (stereo partly shown) [Example 104] | – | – | – | – | – | + (NAUC “+” refers to an observed NAUC <140% of positive control)
CC(C)(C)CN(C(=O)[C@H]1[C@H]2CCCN2C2(C(=O)Nc3c(Cl)cc(Cl)cc32)[C@H]1C(=O)O)c1cc(Cl)cc(Cl)c1 (single isomer, unassigned) [Example 82.6b, (1′S,2′R,7a′S)-5,7-dichloro-1-((3,5-dichlorophenyl)(neopentyl)carbamoyl)-2-oxo-1′,2′,5′,6′,7′,7a′-hexahydrospiro[indoline-3,3′-pyrrolizine]-2′-carboxylic acid] | – | – | – | ++ (NAUC “++” refers to an observed NAUC 170-140% of positive control) | + (NAUC “+” refers to an observed NAUC <140% of positive control) | –

From patent publication US20230055237A1, “COMPOUNDS AND METHODS FOR THE TREATMENT OF CYSTIC FIBROSIS” (Flatley Discovery Lab, LLC, priority 2019, published 2023)
